These results are taken from patent publication US20080132538A1, “Pharmaceutical uses for fluoroalkoxybenzylamino derivatives of nitrogen containing heterocycles” (Pfizer Inc, priority 2000, published 2008).

A word on the melting point: it is the temperature of the solid-liquid transition.

One series has as its system CCR5 receptors. The following applies: Proc. Nat'l. Acad. Sci., 98 (7), p3970; cited from earlier work.
For the compound `COc1ccccc1CN[C@H]1C2CCN(CC2)[C@H]1C(c1ccccc1)c1ccccc1` [CP-96,345], the “effect on CCR5 receptors” value is recorded as “down regulates CCR5 receptors”.

Test system in another series: not given
Details: not given
As to `Cl.FC(F)(F)Oc1ccccc1CN[C@H]1CCCN[C@H]1c1ccccc1`, the melting point lay in the range of 231 to 233 °C.

Regarding `CC(C)c1ccc(OC(F)F)c(CN[C@H]2CCCN[C@H]2c2ccccc2)c1.Cl`, the melting point is 245 to 247 °C (dec.).

Regarding `CCOc1ccc(OC(F)(F)F)cc1CN[C@H]1CCCN[C@H]1c1ccccc1.Cl`, the melting point was > 275 °C (dec.).

On to `CC(C)Oc1ccc(OC(F)(F)F)cc1CN[C@H]1CCCN[C@H]1c1ccccc1.Cl`, for which the melting point is 245 to 246 °C (dec.).

Compound `CC(C)c1ccc(OCC(F)(F)F)c(CN[C@H]2CCCN[C@H]2c2ccccc2)c1.Cl` displayed a melting point greater than 280 °C.

`Cl.FC(F)Oc1ccc(OC(F)F)c(CN[C@H]2CCCN[C@H]2c2ccccc2)c1` returned a melting point of 238 to 239 °C.

As for `CC(C)(C)c1ccc(OC(F)F)c(CN[C@H]2CCCN[C@H]2c2ccccc2)c1.Cl`, the melting point is 263 to 264 °C (dec.).

The compound `CN(C)c1ccc(OCC(F)(F)F)c(CN[C@H]2CCCN[C@H]2c2ccccc2)c1.Cl` gave a melting point of 250 to 252 °C.

Turning to `CC(C)(C)c1ccc(OC(F)(F)F)c(CN[C@H]2CCCN[C@H]2c2ccccc2)c1.Cl`, the melting point is 262 to 264 °C.

The compound `CC(=O)Nc1ccc(OCC(F)(F)F)c(CN[C@H]2CCCN[C@H]2c2ccccc2)c1.Cl` registered a melting point greater than 270 °C.

On to `Cc1ccc(OC(F)F)c(CN[C@H]2CCCN[C@H]2c2ccccc2)c1.Cl`, for which the melting point is greater than 275 °C.
